The record followed here is US20260374756A1, “HETEROCYCLIC COMPOUNDS AS INHIBITORS OF MONOACYLGLYCEROL LIPASE (MAGL)” (Hoffmann-La Roche Inc., priority 2022, published 2026).

By IC50 is commonly meant the point on the concentration scale where inhibition reaches its midpoint. Low readings indicate greater potency in that assay, high ones weaker potency in that assay.

The experiment has as its target T1, hMAGL (Homo sapiens, UniProt Q99685).
T1 sequence (Q99685 1-303): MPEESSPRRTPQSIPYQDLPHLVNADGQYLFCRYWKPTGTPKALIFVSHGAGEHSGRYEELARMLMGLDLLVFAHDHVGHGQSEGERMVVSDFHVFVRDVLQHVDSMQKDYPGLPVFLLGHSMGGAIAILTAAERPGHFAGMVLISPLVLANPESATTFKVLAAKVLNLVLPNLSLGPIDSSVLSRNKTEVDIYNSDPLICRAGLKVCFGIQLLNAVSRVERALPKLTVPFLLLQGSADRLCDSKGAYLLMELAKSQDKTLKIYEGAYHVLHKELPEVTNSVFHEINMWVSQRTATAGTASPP
The experiment in a line: 2-AG assay: MAGL inhibition, hydrolysis of 2-arachidonoylglycerol to arachidonic acid followed by mass spectrometry. The class given is biochemical. In outline:
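Read-out is LC-MS/MS of arachidonic acid released from 2-arachidonoylglycerol (8 μM final), normalised to d8-arachidonic acid internal standard after acetonitrile quench. Enzyme […] and compound were pre-mixed 15 min, then reacted 30 min, both at RT, in Tris/EDTA buffer with 0.01% Tween-20 and 2.5% DMSO.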
With `Cc1cc(C2CC2)n(CC2CC3(C2)CN(C(=O)N2CC4(CC(n5cnc(C6CC6)n5)C4)C2)C3)n1` [Example 132, [6-[(5-cyclopropyl-3-methyl-pyrazol-1-yl)methyl]-2-azaspiro[3.3]heptan-2-yl]-[6-(3-cyclopropyl-1,2,4-triazol-1-yl)-2-azaspiro[3.3]heptan-2-yl]methanone], inhibition was half-maximal at 0.29 nM (IC50).
Next, `CC(C)(C)n1ccnc1CN1CC2(C1)CN(C(=O)N1CC3(CC(n4cnc(C(F)(F)F)n4)C3)C1)C2` [Example 319, [6-[(1-tert-butylimidazol-2-yl)methyl]-2,6-diazaspiro[3.3]heptan-2-yl]-[6-[3-(trifluoromethyl)-1,2,4-triazol-1-yl]-2-azaspiro[3.3]heptan-2-yl]methanone]: 58.3 nM; `O=C(N1CC2(CC(n3cnc(C4CC4)n3)C2)C1)N1CC2(CN(Cc3cnc(C(F)(F)F)o3)C2)C1` [Example 212, [6-(3-cyclopropyl-1,2,4-triazol-1-yl)-2-azaspiro[3.3]heptan-2-yl]-[6-[[2-(trifluoromethyl)oxazol-5-yl]methyl]-2,6-diazaspiro[3.3]heptan-2-yl]methanone]: 13.1 nM.
To `O=C(N1CC2(CC(n3cnc(C4CC4)n3)C2)C1)N1CC2(CN(Cc3ncc(C(F)(F)F)[nH]3)C2)C1` [Example 232, [6-(3-cyclopropyl-1,2,4-triazol-1-yl)-2-azaspiro[3.3]heptan-2-yl]-[6-[[5-(trifluoromethyl)-1H-imidazol-2-yl]methyl]-2,6-diazaspiro[3.3]heptan-2-yl]methanone] belongs 79.8 nM.
Next, `O=C(N1CC2(CC(Cc3n[nH]cc3C(F)(F)F)C2)C1)N1CC2(CC(n3cnc(C(F)F)n3)C2)C1` [Example 344, [6-[3-(difluoromethyl)-1,2,4-triazol-1-yl]-2-azaspiro[3.3]heptan-2-yl]-[6-[[4-(trifluoromethyl)-1H-pyrazol-3-yl]methyl]-2-azaspiro[3.3]heptan-2-yl]methanone]: 2.26 nM; `Cc1cc(C(F)(F)F)n(CC2CC3(C2)CN(C(=O)N2CC4(CC(n5cnc(C(F)(F)F)n5)C4)C2)C3)n1` [Example 71, [6-[[3-methyl-5-(trifluoromethyl)pyrazol-1-yl]methyl]-2-azaspiro[3.3]heptan-2-yl]-[6-[3-(trifluoromethyl)-1,2,4-triazol-1-yl]-2-azaspiro[3.3]heptan-2-yl]methanone]: 3.7 nM.
With `Cc1c(CN2CC3(C2)CN(C(=O)N2CC4(CC(n5cnc(C6CC6)n5)C4)C2)C3)cnn1C` [Example 309, [6-(3-cyclopropyl-1,2,4-triazol-1-yl)-2-azaspiro[3.3]heptan-2-yl]-[6-[(1,5-dimethylpyrazol-4-yl)methyl]-2,6-diazaspiro[3.3]heptan-2-yl]methanone], inhibition was half-maximal at 183 nM (IC50). Compared with the last compound, the IC50 is about 49-fold higher.
To `Cc1cc(C(F)(F)F)n(CC2CC3(C2)CN(C(=O)N2CC4(CC(n5cnc(C6(O)CC6)n5)C4)C2)C3)n1` [Example 73] belongs 110 nM; to `Cn1nc(C2CC2)cc1CN1CC2(C1)CN(C(=O)N1CC3(CC(n4cnc(C5CC5)n4)C3)C1)C2` [Example 272, [6-[(5-cyclopropyl-2-methyl-pyrazol-3-yl)methyl]-2,6-diazaspiro[3.3]heptan-2-yl]-[6-(3-cyclopropyl-1,2,4-triazol-1-yl)-2-azaspiro[3.3]heptan-2-yl]methanone], 7 nM; to `O=C(N1CC2(CC(n3cnc(C4CC4)n3)C2)C1)N1CC2(CN(Cc3ccn(CC(F)(F)F)n3)C2)C1` [Example 100, [6-(3-cyclopropyl-1,2,4-triazol-1-yl)-2-azaspiro[3.3]heptan-2-yl]-[6-[[1-(2,2,2-trifluoroethyl)pyrazol-3-yl]methyl]-2,6-diazaspiro[3.3]heptan-2-yl]methanone], 92.6 nM.
To `Cn1nc(CN2CC3(C2)CN(C(=O)N2CC4(CC(n5cnc(C6CC6)n5)C4)C2)C3)cc1C(F)(F)F` [Example 162, [6-(3-cyclopropyl-1,2,4-triazol-1-yl)-2-azaspiro[3.3]heptan-2-yl]-[6-[[1-methyl-5-(trifluoromethyl)pyrazol-3-yl]methyl]-2,6-diazaspiro[3.3]heptan-2-yl]methanone] belongs 5.27 nM; to `O=C(N1CC2(CC(n3cnc(C4CC4)n3)C2)C1)N1CC2(CN(Cc3nc(CC(F)(F)F)no3)C2)C1` [Example 207, [6-(3-cyclopropyl-1,2,4-triazol-1-yl)-2-azaspiro[3.3]heptan-2-yl]-[6-[[3-(2,2,2-trifluoroethyl)-1,2,4-oxadiazol-5-yl]methyl]-2,6-diazaspiro[3.3]heptan-2-yl]methanone], 25.6 nM; to `O=C(N1CC2(CC(n3cnc(C4CC4)n3)C2)C1)N1CC2(CN(Cc3ncoc3C(F)(F)F)C2)C1` [Example 221, [6-(3-cyclopropyl-1,2,4-triazol-1-yl)-2-azaspiro[3.3]heptan-2-yl]-[6-[[5-(trifluoromethyl)oxazol-4-yl]methyl]-2,6-diazaspiro[3.3]heptan-2-yl]methanone], 32.6 nM.
Take `O=C(N1CC2(CC(n3cnc(C4CC4)n3)C2)C1)N1CC2(CN(Cc3snnc3C3CC3)C2)C1` [Example 90, [6-[(4-cyclopropylthiadiazol-5-yl)methyl]-2,6-diazaspiro[3.3]heptan-2-yl]-[6-(3-cyclopropyl-1,2,4-triazol-1-yl)-2-azaspiro[3.3]heptan-2-yl]methanone]: the midpoint of inhibition, the IC50, lay at 223 nM.
The compound `O=C(N1CC2(CC(Cc3nc(C(F)(F)F)ns3)C2)C1)N1CC2(CC(n3cnc(C(F)(F)F)n3)C2)C1` [Example 15, [6-[[3-(trifluoromethyl)-1,2,4-thiadiazol-5-yl]methyl]-2-azaspiro[3.3]heptan-2-yl]-[6-[3-(trifluoromethyl)-1,2,4-triazol-1-yl]-2-azaspiro[3.3]heptan-2-yl]methanone] had an IC50 of 2.25 nM.
To `Cc1nn(CC(F)(F)F)cc1CN1CC2(C1)CN(C(=O)N1CC3(CC(n4cnc(C5(O)CC5)n4)C3)C1)C2` [Example 111, [6-[3-(1-hydroxycyclopropyl)-1,2,4-triazol-1-yl]-2-azaspiro[3.3]heptan-2-yl]-[6-[[3-methyl-1-(2,2,2-trifluoroethyl)pyrazol-4-yl]methyl]-2,6-diazaspiro[3.3]heptan-2-yl]methanone] belongs 3900 nM.
To `O=C(N1CC2(CCN(Cc3ncc(C(F)F)s3)CC2)C1)N1CC2(CC(c3cc(C4CC4)n[nH]3)C2)C1` [Example 30, [6-(3-cyclopropyl-1H-pyrazol-5-yl)-2-azaspiro[3.3]heptan-2-yl]-[7-[[5-(difluoromethyl)thiazol-2-yl]methyl]-2,7-diazaspiro[3.5]nonan-2-yl]methanone] belongs 3.59 nM; to `O=C(N1CC2(CC(Cn3cnc(C(F)(F)F)c3)C2)C1)N1CC2(CC(n3cnc(C4(O)CC4)n3)C2)C1` [Example 41, [6-[3-(1-hydroxycyclopropyl)-1,2,4-triazol-1-yl]-2-azaspiro[3.3]heptan-2-yl]-[6-[[4-(trifluoromethyl)imidazol-1-yl]methyl]-2-azaspiro[3.3]heptan-2-yl]methanone], 93.7 nM; to `O=C(N1CC2(CC(Cc3nsc(C(F)(F)F)n3)C2)C1)N1CC2(CC(n3cnc(C4(O)CC4)n3)C2)C1` [Example 22, [6-[3-(1-hydroxycyclopropyl)-1,2,4-triazol-1-yl]-2-azaspiro[3.3]heptan-2-yl]-[6-[[5-(trifluoromethyl)-1,2,4-thiadiazol-3-yl]methyl]-2-azaspiro[3.3]heptan-2-yl]methanone], 2.57 nM.
